# Test results published in ChEMBL document CHEMBL3792378, “Design, synthesis and cytotoxicity of pyrano[4,3-b]indol-1(5H)-ones: A hybrid pharmacophore approach via gold catalyzed cyclization” (Bioorg Med Chem Lett, 2016).
# pIC50: −log10 of the molar value.
# Test system: HeLa
# Test: Cytotoxicity against human HeLa cells incubated for 48 hrs by MTT assay
# Assay type: functional, cell-based
row,Structure (SMILES),pIC50
1,CCn1c2ccccc2c2c(=O)oc(-c3ccccc3)cc21,5.85
2,CCCCc1cc2c(c(=O)o1)c1ccccc1n2C,5.72
3,CCCCc1cc2c(c(=O)o1)c1ccccc1n2CC,5.72
4,CCCCCc1cc2c(c(=O)o1)c1ccccc1n2Cc1ccccc1,5.79
5,O=c1oc(-c2ccccc2)cc2c1c1ccccc1n2Cc1ccccc1,6.16
6,O=c1oc(-c2ccccc2)cc2[nH]c3ccccc3c12,5.59
7,CC(C)(O)c1cc2c(c(=O)o1)c1ccccc1n2Cc1ccccc1,5.69
8,CCCCn1c2ccccc2c2c(=O)oc(-c3ccccc3)cc21,5.95
9,O=c1oc(CCCO)cc2c1c1ccccc1n2Cc1ccccc1,5.65
10,Cn1c2ccccc2c2c(=O)oc(-c3ccccc3)cc21,5.91
11,CCCCc1cc2c(c(=O)o1)c1ccccc1n2Cc1ccccc1,5.76
